Experimental data as given in patent publication US6291470A, “Indole derivatives process for producing the same and medicinal uses of the same” (Toray Industries, Inc., priority 1992, dated 2001).

Columns and labels:
δ-opioid receptor = molecular target: T1, δ-opioid receptor (Mus musculus, UniProt P32300); experiment: δ-opioid antagonist activity against DPDPE in mouse vas deferens (MVD); conditions: against DPDPE; test compound 100 nM, 20 min; read-out: Ke
T1 construct: from tissue; host or cells: vas deferens of male ddy mice
Summary of the method: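 Vas deferens from male ddy mice in Krebs-Henseleit at 37 °C (5% CO2/95% O2), field-stimulated at 0.1 Hz, 5.0 ms, isometric contraction recorded. IC50 dose ratio, Ke and Schild pA2 derived.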

[1] = tested on: Cerebral cortex nerve cells; experiment: Brain cell-protecting action, MTT method; assay type: cell-based, rat; conditions: 10 μM
immune system = conditions: in vitro and in vivo; Kokai No. 3-223288; cited from earlier work

T1 sequence (P32300 whole entry): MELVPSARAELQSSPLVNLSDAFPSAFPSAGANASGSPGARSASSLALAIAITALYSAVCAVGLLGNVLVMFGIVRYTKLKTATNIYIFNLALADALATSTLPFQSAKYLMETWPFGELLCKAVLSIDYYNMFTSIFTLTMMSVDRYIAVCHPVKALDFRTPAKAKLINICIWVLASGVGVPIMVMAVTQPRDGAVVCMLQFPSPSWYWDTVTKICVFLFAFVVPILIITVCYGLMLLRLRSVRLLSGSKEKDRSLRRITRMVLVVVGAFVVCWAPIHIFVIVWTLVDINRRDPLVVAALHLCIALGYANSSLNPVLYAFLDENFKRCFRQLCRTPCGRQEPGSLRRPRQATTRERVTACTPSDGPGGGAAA

SMILES: Oc1ccc2c3c1O[C@H]1c4[nH]c5ccccc5c4C[C@@]4(O)[C@@H](C2)N(CC2CC2)CC[C@]314 [NTI, reference compound]
- Kb (δ-opioid receptor): 0.21 nM
- brain cell-protecting action (in words) ([1]; MTT): has brain cell-protecting action
- Ratio of Absorbances ([1]; study group / control group, 570 nm, 3 days culture): 4.21
- immunosuppressive action (in words) (immune system): exhibits immunosuppressive action in vitro and in vivo
